These antisense oligonucleotides have a phosphorothioate backbone; sugars and methylation of C are not fully specified. Where only a bound is given, the exact number is not on record here.
Also: test concentration or dose not given here.

The target of the first series is CD44. Conditions: ASO.
With AAAGGTTGGCGATCAGGA, the remaining target (mRNA or protein) (fraction of control) was ≥ 1.
Turning to AAATCCGATGCTCAGAGC, the remaining target (mRNA or protein) (fraction of control) is ≥ 1.
Still for that read-out and setting: the value for AACCCTGGGAAATGTCCT was ≥ 1; that for AAGCCAAGGCCAAGAGGG was ≥ 1; that for AAGGCATTGGGCAGGTCT was 0.99.
As for AATGTCCTTAGCTGGTGG, the remaining target (mRNA or protein) (fraction of control) was ≥ 1.
Turning to ACAGCTCCATTGCCACTG, the remaining target (mRNA or protein) (fraction of control) was ≥ 1.
On the same count and under the same terms, the value for ACCAGGCCCTATTAACCC was ≥ 1.
In the case of ACGTGGAATACACCTGCA, the remaining target (mRNA or protein) (fraction of control) is ≥ 1.
Same read-out and setting: the value for AGAGCTTTCTCCATCTGG was ≥ 1; that for AGAGGGATGCCAAGATGA was ≥ 1.
Take AGATTCGCAATGAAACAA: the remaining target (mRNA or protein) (fraction of control) was ≥ 1.
Regarding AGCAATGCCCAGGGATTA, the remaining target (mRNA or protein) (fraction of control) is ≥ 1.
The sequence AGCCATCCATAGCACACC showed a remaining target (mRNA or protein) (fraction of control) of 0.97.
In the case of AGCCGCTGCTCACGTCAT, the remaining target (mRNA or protein) (fraction of control) is ≥ 1.
Take AGGACTGATCCAGGGTTT: the remaining target (mRNA or protein) (fraction of control) was found to be 0.83.
For AGGTCTCAAATCCGATGC, the remaining target (mRNA or protein) (fraction of control) is ≥ 1.
On the same count and under the same terms, the value for AGTGGAAAGCAATGCCCA was ≥ 1; that for ATAGCACACCCGAGGATG was ≥ 1; that for ATCAGTAGGGTTGCTGGG was ≥ 1.

A further series concerns the target SRA1. Particulars: ASO.
Sequence CCATTCTCTTCTTTACAG gave a remaining target (mRNA or protein) (fraction of control) of 0.6.
Consider CCCCACTCAATGTGGTTC, for which the remaining target (mRNA or protein) (fraction of control) turned out to be 0.31.
Still for that read-out and setting: the value for CCCGGCTTCACGTACAGC was 0.63; that for CCGCGTTCCTTGTTGCCG was 0.94.
The same measure, in the same setting: the value for CCTCTGAAAACAGACTCC was 0.71; that for CCTGCTGGAAGCCTGGTA was ≥ 1.
Regarding CCTGCTTCCTTGTGTGGC, the remaining target (mRNA or protein) (fraction of control) was 0.66.
Turning to CCTGGGTCCGCCGGCCTG, the remaining target (mRNA or protein) (fraction of control) is 0.86.
The sequence CCTTGTGTGGCCACGGCA had a remaining target (mRNA or protein) (fraction of control) of 0.43.
Consider CGAGCGCCTGGGTCCGCC, for which the remaining target (mRNA or protein) (fraction of control) came to 0.48.
Still for that read-out and setting: the value for CGGCAGTCTTCCAATGCC was ≥ 1; that for CGTATGAGAACTGCGGCG was ≥ 1; that for CGTCGGCTGATGTCATCA was 0.61.
The same measure, in the same setting: the value for CTCAGCTGTGGCTGCAGA was ≥ 1; that for CTCCAGCCCACTGTTCCT was ≥ 1; that for CTCCATCAGTCGAGCCTC was ≥ 1.
For CTCCTACCATCCACTGAC, the remaining target (mRNA or protein) (fraction of control) is 0.46.
Take CTCGACTGGGAAACTTGT: the remaining target (mRNA or protein) (fraction of control) was determined as 0.63.
Consider CTCTGGCCCAGGTGGGAC, for which the remaining target (mRNA or protein) (fraction of control) is 0.55.
CTGAAAACAGACTCCTCT gave a remaining target (mRNA or protein) (fraction of control) of 0.56.
Turning to CTGACCTCAGTCACATGG, the remaining target (mRNA or protein) (fraction of control) is ≥ 1.
In turn, CTGCTGCGTCCCACCGGT registered a remaining target (mRNA or protein) (fraction of control) of 0.21.
On the same count and under the same terms, the figure for CTGCTGGAAGCCTGGTAT is 0.77; for CTTCATTGGCTGCCTCCT it is 0.2.
On the same count and under the same terms, the value for CTTCCCTCATAGGTGGGT was ≥ 1; that for CTTTCCTCCAGCCCACTG was 0.36.
Turning to CTTTCCTTTTGTTGAGGG, the remaining target (mRNA or protein) (fraction of control) is ≥ 1.
Sequence CTTTTAACTCCTACCATC displayed a remaining target (mRNA or protein) (fraction of control) of 0.43.
In the case of CTTTTCTGCAATTAATCT, the remaining target (mRNA or protein) (fraction of control) was found to be 0.61.
On to GACACCAGAGGGACTAGC, for which the remaining target (mRNA or protein) (fraction of control) came out at 0.73.
Consider GACCACTCCCCACAGGTG, for which the remaining target (mRNA or protein) (fraction of control) was ≥ 1.
GAGCCTCAGACTCGACTG displayed a remaining target (mRNA or protein) (fraction of control) of 0.65.
The sequence GAGGCCCAGGAGAAGTCT came in with a remaining target (mRNA or protein) (fraction of control) of 0.62.
The sequence GAGGCCCGGAACTCCACT gave a remaining target (mRNA or protein) (fraction of control) of 0.89.
Sequence GAGGGAGCGGTGGATGTC had a remaining target (mRNA or protein) (fraction of control) of 0.48.
GAGGGTCCATACTAAGCG: the remaining target (mRNA or protein) (fraction of control) worked out at 0.53.
On the same count and under the same terms, the value for GCACCAGTAGAGCCATTC was 0.3; that for GCCAGAGGCAGGACCACT was 0.72; that for GCCAGGCGTCGGCTGATG was 0.38.
The same measure, in the same setting: the value for GCTCCACGCCAGAGGCAG was 0.49.
On the same count and under the same terms, the figure for GCTCCGCCCAGCACAGGA is 0.37; for GCTGTGGCTGCAGATTTC it is 0.48.
Turning to GCTTGAAAGCTCTTGCAC, the remaining target (mRNA or protein) (fraction of control) is ≥ 1.
GGAACCGAGGATTATGAA gave a remaining target (mRNA or protein) (fraction of control) of 0.68.
On the same count and under the same terms, the value for GGAGCCAAGTGACAGAAG was 0.86; that for GGAGCCTTACTTGAAGGA was 0.54.
As for GGATGCTTGTTCAGTCTA, the remaining target (mRNA or protein) (fraction of control) is ≥ 1.
The sequence GGCACCGGAAGGAGATGG yielded a remaining target (mRNA or protein) (fraction of control) of 0.43.
Same read-out and setting: the figure for GGCCCAGGAGAAGTCTCT is ≥ 1.
GGCCTGGGTCTGCAGCCC returned a remaining target (mRNA or protein) (fraction of control) of 0.94.
Turning to GGCGTCGGCTGATGTCAT, the remaining target (mRNA or protein) (fraction of control) amounted to 0.42.
In the case of GGGAGCCTTACTTGAAGG, the remaining target (mRNA or protein) (fraction of control) was 0.88.
Regarding GGGTCAGGCCCAGTGGGA, the remaining target (mRNA or protein) (fraction of control) is ≥ 1.
For GGGTCCGCCGGCCTGGGT, the remaining target (mRNA or protein) (fraction of control) is ≥ 1.
On to GGTGGTGGTAAGAAGGGA, for which the remaining target (mRNA or protein) (fraction of control) is ≥ 1.
GGTGTCCGGTGAGTCTGG returned a remaining target (mRNA or protein) (fraction of control) of 0.5.
For the sequence GGTTCTTCTCAGCTGTGG, the remaining target (mRNA or protein) (fraction of control) is 0.49.
The same measure, in the same setting: the value for GTAGGCAGTAGTCTGACT was 0.42; that for GTATCTCAAGGGTGATAC was 0.6.
The sequence GTATGGTATGGTTCTTCT came in with a remaining target (mRNA or protein) (fraction of control) of 0.94.
Take GTCGGCTGATGTCATCAC: the remaining target (mRNA or protein) (fraction of control) was ≥ 1.
Take GTCTGCAGCCCGTATGAG: the remaining target (mRNA or protein) (fraction of control) was ≥ 1.
On the same count and under the same terms, the value for GTGGATGTCATCTGCTGC was ≥ 1; that for TATGAAGCCTGCTGGAAG was 0.64; that for TCACATGGTCAACCATGA was 0.93.
Regarding TCAGCACATCCTCCATCA, the remaining target (mRNA or protein) (fraction of control) amounted to 0.97.
As for TCAGTCACATGGTCAACC, the remaining target (mRNA or protein) (fraction of control) came to 0.5.
TCCAAAGGTCTCAGCACA displayed a remaining target (mRNA or protein) (fraction of control) of 0.26.
For TCTCCAAGGCATAGGAGA, the remaining target (mRNA or protein) (fraction of control) came to 0.8.
Turning to TCTGAAAACAGACTCCTC, the remaining target (mRNA or protein) (fraction of control) was 0.99.
As to TCTGCTGCGTCCCACCGG, the remaining target (mRNA or protein) (fraction of control) was determined as 0.32.
With TGAAAGCTCTTGCACCAG, the remaining target (mRNA or protein) (fraction of control) came to 0.64.
In the case of TGAAGGAGGTGGAGGCCC, the remaining target (mRNA or protein) (fraction of control) is ≥ 1.
In the case of TGAATGGAGAAGGGAGAA, the remaining target (mRNA or protein) (fraction of control) worked out at 0.75.
TGACAACTTTCCTCCAGC came in with a remaining target (mRNA or protein) (fraction of control) of 0.15.
Same read-out and setting: the figure for TGACAGAAGGTCTCCAAG is 0.81.
Sequence TGCTGCGTCCCACCGGTG showed a remaining target (mRNA or protein) (fraction of control) of 0.27.
On to TGCTGGAAGCCTGGTATG, for which the remaining target (mRNA or protein) (fraction of control) turned out to be 0.28.
Still for that read-out and setting: the value for TGGCCACGGCAGTCTTCC was 0.52.
In turn, TGGTAAGCAGCGAGCGCC registered a remaining target (mRNA or protein) (fraction of control) of 0.74.
Still for that read-out and setting: the figure for TGGTATGGTTCTTCTCAG is 0.58; for TGTCATCACATACCTGCT it is 0.76.
On the same count and under the same terms, the value for TGTGTGGCCACGGCAGTC was 0.47; that for TGTTCCTGCAGCAGTGCC was 0.39.
With TTCCAAAGGTCTCAGCAC, the remaining target (mRNA or protein) (fraction of control) stood at 0.49.
In the case of TTCCAGCCGCGTTCCTTG, the remaining target (mRNA or protein) (fraction of control) was ≥ 1.
TTCCTGCAGCAGTGCCAG registered a remaining target (mRNA or protein) (fraction of control) of 0.45.
In turn, TTCCTTGTTGCCTGCGGA came in with a remaining target (mRNA or protein) (fraction of control) of 0.72.
In the case of TTCTCATGCTGAAATGAA, the remaining target (mRNA or protein) (fraction of control) stood at 0.74.
Sequence TTCTGCAATTAATCTTTT came in with a remaining target (mRNA or protein) (fraction of control) of 0.59.
Take TTCTTTACAGGTATTGAC: the remaining target (mRNA or protein) (fraction of control) is ≥ 1.
Still for that read-out and setting: the figure for TTGGCTGCCTCCTCTGAA is 0.58; for TTGGTAAGCAGCGAGCGC it is 0.56.
On the same count and under the same terms, the value for TTTAACTCCTACCATCCA was 0.89.
Turning to TTTACAGGTATTGACAAC, the remaining target (mRNA or protein) (fraction of control) was ≥ 1.
Still for that read-out and setting: the figure for TTTCACCGCAGAGATGTT is ≥ 1; for TTTCTCTTCATTGGCTGC it is 0.38.
As for TTTCTGCAATTAATCTTT, the remaining target (mRNA or protein) (fraction of control) is ≥ 1.
Still for that read-out and setting: the value for TTTTAACTCCTACCATCC was ≥ 1.

The record behind these values is the OligoGym collection.
